Assay results from publication PMC10871713 (Materials today. Nano, 2023).
Positions of bridges follow the written chain, without caps; N, C: chain ends. No end group written: not given here.

Key:
streptavidin = conditions: AFM; streptavidin/biotin partners (Beebe et al.) ref 40, 41; cited from earlier work
[1] = cyclic peptide; cited from earlier work
[2] = tested on: adipose-derived stem cells (ADSCs); experiment: ADSC attachment and spreading on protein crystals; assay type: cell-based, human; conditions: protein crystal surface passivated by covalent attachment of PEG; data not shown
CJ^OPT protein crystal = tested on: CJ^OPT protein crystal; set-up: species or system Campylobacter jejuni

For `O=C(O)CCCC[C@@H]1SC[C@@H]2NC(=O)N[C@@H]21` [biotin], the ligand-receptor bond-rupture force (streptavidin) is given as 442 ± 17 pN.
In the case of “CWDDGWLC (disulfide 1-8 (inferred)) [IntP]”, the “binding to RGD” value [1] is listed as “binds RGD”.
With poly(ethylene glycol) [PEG] the “cell adhesion” value [2] was “no cell adhesion” and the “adsorption of PEG from solution by crystals” value (CJ^OPT protein crystal) was “adsorbed by the crystals from solution within minutes”.
